Results from patent EP0017970A1, “Novel beta-lactam derivatives and process for production thereof” (SANRAKU-OCEAN CO., LTD., priority 1979, dated 1980).
Counter-ions that a name gives are not always drawn.

Experiments:
[1] = Solubility (physical and chemical properties); format: physicochemical
Description: The resulting powder was dissolved in 1 ml of a phosphate buffer (M/100, pH 8.4), and charged onto a column (1.1 x 90 cm) of Sephadex G-10 (a product of Pharmacia Fine Chemicals, Co.), and developed with the same buffer. The active fractions were collected by measuring their ultraviolet absorptions (λ300 nm). These fractions were adsorbed to a column (1.1 x 20 cm) of QAE Sephadex A-25 equilibrated with phosphate buffer (M/100, pH 8.4), and the column was eluted with 200 ml of phosphate buffer (M/100, pH 8.4) having a sodium chloride concentration linearly varying from 0 to O.lM by a concentration gradient method. The ultraviolet absorption (X300 nm) of each of the fractions was measured, and the active fractions were collected. Sodium chloride was added to the active fractions so that the concentration of sodium chloride reached 3% (w/v). The mixture was adsorbed to a column (1.1 x 20 cm) of Diaion HP-20AG (200 - 400 mesh), and eluted with water. The eluates were lyophilized to afford 5 mg of the sodium salt of PS-3 as a white dry powder. The physical and chemical properties of the product were as follows: • 1) Color Colorless • 2) Solubility

[2] = Reaction with hydroxylamine, loss of UV absorbance; format: physicochemical; details: about 20 µg/ml, hydroxylamine 10 mM, pH 7.5, 22°C for 30 minutes
Description: An aqueous solution of hydroxylamine having a pH of 7.5 is added to a solution of the above substance in deionized water so that the concentration of the antibiotic PS-3 to about 20 µg/ml and the concentration of hydroxylamine to 10 mM. When the mixed solution is allowed to stand at 22°C for 30 minutes, about 93% of its absorbance at 300.0 nm disappears.

CC(=O)NCCSC1=C(C(=O)O)N2C(=O)C(C(C)O)C2C1 (stereo not drawn) [PS-3 sodium salt, 3-(2-acetamidoethylthio)-6-(1-hydroxyethyl)-7-oxo-1-azabicyclo[3.2.0]hept-2-ene-2-carboxylic acid]
Solubility ([1]; in acetone): substantially insoluble
Solubility ([1]; in water): Readily soluble
absorbance at 300.0 nm that disappears [2]: about 93%
